pIC50: −log10 of the molar value. Where a name gives a salt, the structure may show the parent alone. Read-outs that look alike come from different tables or passages of the source.
How the values were obtained:
[1] = system: Enterobacter cloacae BAA-2341 (KPC); experiment: In vitro antibacterial activity, agar dilution MIC; type: cell-based; conditions: Enterobacter cloacae, BAA2341
Excerpt: (§1) Experimental strains: all experimental standard bacterial strains for enzyme production were purchased from ATCC, and the clinically separated CRE strain was purchased from Southwest Hospital of the Third Military Medical University.
(§2) Experimental Method: Agar dilution method, referring to M100-S23: Performance Standards for Antimicrobial Susceptibility Testing: Twenty-Third Informational Supplement (Clinical And Laboratory Standards Institute, 2013). Minimal inhibitory concentration (MIC, μg/mL) was calculated.

[2] = system: Enterobacter hormaechei BAA-2082 (KPC); experiment: In vitro antibacterial activity, agar dilution MIC; type: cell-based; conditions: Enterobacter hormaechei, BAA2082
Excerpt: as §1, §2

[3] = system: Escherichia coli BAA-196 (TEM-10); experiment: In vitro antibacterial activity, agar dilution MIC; type: cell-based
Excerpt: as §1, §2

[4] = system: Escherichia coli BAA-2452 (NDM-1); experiment: In vitro antibacterial activity, agar dilution MIC; type: cell-based
Excerpt: as §1, §2

[5] = system: Escherichia coli BAA-2523 (OXA-48); experiment: In vitro antibacterial activity, agar dilution MIC; type: cell-based
Excerpt: as §1, §2

[6] = system: Klebsiella pneumoniae BAA-1900 (KPC); experiment: In vitro antibacterial activity, agar dilution MIC; type: cell-based
Excerpt: as §1, §2

[7] = system: Klebsiella pneumoniae BAA-2524 (OXA-48); experiment: In vitro antibacterial activity, agar dilution MIC; type: cell-based; conditions: Klebsiella pneumoniae, BAA2524
Excerpt: as §1, §2

[8] = system: Klebsiella pneumoniae BAA-2146 (NDM-1); experiment: In vitro antibacterial activity, agar dilution MIC; type: cell-based
Excerpt: as §1, §2

[9] = system: Enterobacter cloacae 7513ecl-314 (AmpC); experiment: In vitro antibacterial activity on clinically separated CRE strain, agar dilution MIC; type: cell-based; conditions: first Table 4, 7513ecl-314 Enterobacter cloacae
Excerpt: as §1, §2

[10] = system: Klebsiella pneumoniae 7463kpn-610 (ESBLs); experiment: as above; type: cell-based; conditions: first Table 4, 7463kpn-610 Klebsiella pneumoniae
Excerpt: as §1, §2

[11] = system: Klebsiella pneumoniae 7484kpn-631 (IMP, ESBLs); experiment: as above; type: cell-based; conditions: first Table 4, 7484kpn-631 Klebsiella pneumoniae
Excerpt: as §1, §2

[12] = Pharmacokinetics in SD rats (iv); type: in vivo, SD rat; conditions: male, plasma; for half-life / clearance: SD, rat, iv, 1 mg/kg; for clearance: read-out: Cl—obs (converted); for Vd / AUC(0-t): SD rat, iv 1 mg/kg; for Vd: apparent volume of distribution, read-out: Vss—obs; for AUC(0-t): area under the curve 0→t
Protocol: Experimental Example 1: Pharmacokinetics Experiments of the Compound of the Present Invention in Rats Test animals: 3 male SD rats, bodyweight 200-250 g for each animal. Test samples were administrated via intravenous push (iv), dosage of administration was 1 mg/kg, volume of administration was 2 mL/kg. Collecting time points: iv: after administration 0.083 […]. At each time point, about 100 μL of whole blood was sampled via caudal vein, added to K2EDTA anti-coagulative tube, centrifuged in a refrigerated centrifuge under 8000 rpm for 6 min to separate plasma, and the plasma was stored in -80° C. refrigerator. Plasma (20 μL) was taken and placed in a 96-well deep-well plate, and internal standard solution (300 μL) was added, subjected to vortex for 5 min, then centrifuged under 12000 rpm for 5 min, and then supernatant (200 μL) was taken and subjected to vortex for 3 min; to be analyzed by LC-MS/MS. Plasma (30 μL) was taken and placed in 1.5 mL EP tube, and internal standard solution (300 μL) was added, subjected to vortex for 5 min, then centrifuged under 12000 rpm for 5 min, and then supernatant (200 μL) was taken and subjected to vortex for 3 min; to be analyzed by LC-MS/MS. Plasma (30 μL) was taken and placed in a 96-well deep-well plate, and internal standard solution (200 μL) was added, subjected to vortex for 5 min, then centrifuged under 4000 rpm for 20 min, and then supernatant (100 μL) was taken and water (100 μL) was added, and subjected to vortex homogeneously; to be analyzed by LC-MS/MS.

KPC-2 = molecular target: T1, KPC-2 (Klebsiella pneumoniae, UniProt Q9F663); experiment: β-lactamase inhibition, Nitrocefin hydrolysis; type: biochemical
T1 construct: purchased
T1 sequence (Q9F663 25-293, looked up, species assumed): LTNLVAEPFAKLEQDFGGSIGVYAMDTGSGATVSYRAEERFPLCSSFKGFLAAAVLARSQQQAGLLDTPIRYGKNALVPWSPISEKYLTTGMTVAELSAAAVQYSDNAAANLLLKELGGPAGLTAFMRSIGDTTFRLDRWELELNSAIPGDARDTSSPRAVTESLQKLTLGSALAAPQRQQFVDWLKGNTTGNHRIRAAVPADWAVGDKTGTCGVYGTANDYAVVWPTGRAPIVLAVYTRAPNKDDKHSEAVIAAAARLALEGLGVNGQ
Protocol: (§3) Nitrocefin, a kind of cephalosporin antibiotics, is sensitive to most of β-lactamases, and changes in color after being hydrolyzed. The hydrolysis rate of Nitrocefin was measured by real-time recording corresponding absorbance of reaction system. β-Lactamase inhibitors could inhibit hydrolysis of the enzymes to Nitrocefin, and reduce hydrolysis rate. By measuring reaction rates in the same reaction system under different inhibitor concentrations, the IC50 (half maximal inhibitory concentration) values of inhibitors were calculated.
(§4) Nitrocefin was dissolved in DMSO to form a solution with concentration of 2 mM, which was sub-packaged and stored at −20° C. The concentration of purchased β-lactamases mother liquor was 1 mg/mL, and the mother liquor was dissolved in 50% glycerol. A part of mother liquor was taken and diluted by 1000 times in reaction solution, sub-packaged and stored at ˜20° C.
(§5) The compounds to be tested were dissolved in DMSO to form a mother liquor with concentration of 10 mM. If not used that day, the mother liquor was stored at −20° C. Its test final concentrations were: 100 μM, 25 μM, 6.25 μM, 1.563 μM, 390.6 nM, 97.66 nM, 24.41 nM, 6.10 nM, 1.53 nM, 0.381 nM, 0.095 nM.

TEM-1 = molecular target: T2, TEM-1 (Escherichia coli, UniProt P62593); experiment: β-lactamase inhibition, Nitrocefin hydrolysis; type: biochemical; conditions: Experiment 1; enzyme 0.25 nM, Nitrocefin 0.1 mM; read-out: IC50 ESBLs type TEM-1
T2 construct: purchased
T2 sequence (P62593 24-286 limits assumed): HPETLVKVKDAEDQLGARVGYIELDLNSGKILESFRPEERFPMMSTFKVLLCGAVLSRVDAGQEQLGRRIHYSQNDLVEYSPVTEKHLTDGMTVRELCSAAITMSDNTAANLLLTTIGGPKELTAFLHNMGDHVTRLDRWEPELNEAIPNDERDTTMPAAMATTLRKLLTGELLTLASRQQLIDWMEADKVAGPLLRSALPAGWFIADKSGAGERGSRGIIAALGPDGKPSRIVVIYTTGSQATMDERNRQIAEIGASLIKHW
Protocol: as §3, §4, §5

[13] = system: Klebsiella oxytoca ATCC-51983 (SHV-5); experiment: In vitro antibacterial activity, agar dilution MIC; type: cell-based; conditions: Klebsiella oxytoca, ATCC51983
Excerpt: as §1, §2

OXA-10 = molecular target: T3, OXA-10 (Pseudomonas aeruginosa, UniProt P14489); experiment: β-lactamase inhibition, Nitrocefin hydrolysis; type: biochemical; conditions: Experiment 3; enzyme 10 nM, Nitrocefin 0.1 mM; read-out: IC50 Type D OXA-10
T3 construct: purchased
T3 sequence (P14489 20-266, species assumed): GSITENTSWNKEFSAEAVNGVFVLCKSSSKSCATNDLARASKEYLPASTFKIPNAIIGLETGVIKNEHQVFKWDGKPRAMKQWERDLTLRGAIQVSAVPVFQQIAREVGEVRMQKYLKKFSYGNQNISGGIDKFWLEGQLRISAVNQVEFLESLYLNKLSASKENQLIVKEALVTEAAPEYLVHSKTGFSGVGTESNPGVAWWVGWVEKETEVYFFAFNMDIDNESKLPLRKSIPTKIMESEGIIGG
Protocol: as §3, §4, §5

AmpC = molecular target: T4, AmpC (UniProt P05364); experiment: β-lactamase inhibition, Nitrocefin hydrolysis; type: biochemical; conditions: read-out: IC50 Type C AmpC; Experiment 1; enzyme 0.4 nM, Nitrocefin 0.1 mM
T4 construct: The concentration of purchased β-lactamases mother liquor was 1 mg/mL, and the mother liquor was dissolved in 50% glycerol
Protocol: as §3, §4, §5

[14] = BAA196, first Table 4, BAA-196 Escherichia coli, TEM-10, read-out: MIC
[15] = BAA2452, first Table 4, BAA-2452 Escherichia coli, NDM-1, read-out: MIC
[16] = BAA2523, first Table 4, BAA-2523 Escherichia coli, OXA-48, read-out: MIC
[17] = BAA1900, first Table 4, BAA-1900 Klebsiella pneumoniae, KPC, read-out: MIC
[18] = BAA2146, first Table 4, BAA-2146 Klebsiella pneumoniae, NDM-1, read-out: MIC
[19] = Experiment 1, Nitrocefin 0.1 mM, read-out: IC50 Type A KPC-2

SMILES | MIC [2] [mg/L] | MIC ([3]; BAA196) [mg/L] | MIC ([4]; BAA2452) [mg/L] | MIC ([5]; BAA2523) [mg/L] | MIC ([6]; BAA1900) [mg/L] | MIC [7] [mg/L] | half-life [12] [h] | clearance [12] [L/h/kg] | Vd [12] [L/kg] | AUC(0-t) [12] [µg·h/mL] | pIC50 (TEM-1) | also measured
CCN1CC2(CC(NC(=O)[C@@H]3CC[C@@H]4CN3C(=O)N4OS(=O)(=O)O)C2)C1 [Comp. 7 sodium salt, sodium (2S,5R)-2-((2-ethyl-2-azaspiro[3.3]heptan-6-yl)carbamoyl)-7-oxo-1,6-diazabicyclo[3.2.1]octan-6-yl sulfate] | 8 | 8 | 4 | 4 | 8 | 8 |  |  |  |  |  | MIC [1]: 8 mg/L
CN1CC2(CC(NC(=O)[C@H]3CC[C@@H]4CN3C(=O)N4OS(=O)(=O)O)C2)C1 [Compound 6-2, (2R,5R)-2-((2-methyl-2-azaspiro[3,3]heptan-6-yl)carbamoyl)-7-oxo-1,6-diazabicyclo[3,2,1]octan-6-yl hydrogen sulfate] |  |  |  |  |  |  |  |  |  |  |  | MIC [3, 14]: 8 mg/L; MIC [4, 15]: 8 mg/L; MIC [5, 16]: 8 mg/L; MIC [6, 17]: 8 mg/L; MIC [8, 18]: 16 mg/L; MIC [9]: 4 mg/L; MIC [10]: 8 mg/L; MIC [11]: 4 mg/L
O=C(NC1CC2CCC(C1)N2)[C@@H]1CC[C@@H]2CN1C(=O)N2OS(=O)(=O)O (stereo partly drawn) [Compound 4, (2S,5R)-2-((8-azabicyclo[3.2.1]octane-3-yl)carbamoyl)-7-oxo-1,6-diazabicyclo[3.2.1]octan-6-yl hydrogen sulfate] |  |  |  |  |  |  | 2.04 | 0.724 | 0.348 | 1.39 | 7.69 | pIC50 (KPC-2): 7.64
O=C(NC1CC2(C1)CN(CC1CC1)C2)[C@@H]1CC[C@@H]2CN1C(=O)N2OS(=O)(=O)O [Compound 14, sodium (2S,5R)-2-((2-(cyclopropylmethyl)-2-azaspiro[3.3]heptan-6-yl)carbamoyl)-7-oxo-1,6-diazabicyclo[3.2.1]octan-6-yl sulfate] | 8 | 8 | 2 | 2 | 4 | 4 |  |  |  |  |  | MIC [1]: 8 mg/L; MIC [13]: 8 mg/L; MIC ([8]; BAA2146): 8 mg/L
CN1CC2(CC(NC(=O)[C@@H]3CC[C@@H]4CN3C(=O)N4OS(=O)(=O)O)C2)C1 [Compound 6 sodium salt, sodium (2S,5R)-2-((2-methyl-2-azaspiro[3.3]heptan-6-yl)carbamoyl)-7-oxo-1,6-diazabicyclo[3.2.1]octan-6-yl sulfate] |  |  |  |  |  |  | 0.25 | 0.545 | 0.219 | 1.84 |  | pIC50 (OXA-10): 4.66
O=C(NC1C2CCC1CNC2)[C@@H]1CC[C@@H]2CN1C(=O)N2OS(=O)(=O)O (stereo partly drawn) [Compound 5, (2S,5R)-2-((3-azabicyclo[3.2.1]octan-8-yl)carbamoyl)-7-oxo-1,6-diazabicyclo[3.2.1]octan-6-yl hydrogen sulfate] |  |  |  |  |  |  |  |  |  |  | 7.18 | pIC50 (AmpC): 7.08; pIC50 (KPC-2; [19]): 7.56
O=C(NC1CC2(C1)CN(C1CC1)C2)[C@@H]1CC[C@@H]2CN1C(=O)N2OS(=O)(=O)O [Compound 13, (2S,5R)-2-(2-cyclopropyl-2-azaspiro[3.3]heptan-6-ylcarbamoyl)-7-oxo-1,6-diazabicyclo[3.2.1]octan-6-yl hydrogen sulfate] | 16 | 16 | 4 | 4 | 8 | 4 |  |  |  |  |  | MIC [13]: 8 mg/L
O=C(NC1CC2(CCNCC2)C1)[C@@H]1CC[C@@H]2CN1C(=O)N2OS(=O)(=O)O [Compound 1, (2S,5R)-2-(7-azaspiro[3.5]nonan-2-ylcarbamoyl)-7-oxo-1,6-diazabicyclo[3.2.1]octan-6-yl hydrogen sulfate] |  |  |  |  |  |  | 1.01 | 0.466 | 0.294 | 2.33 | 7.55 | pIC50 (AmpC): 7.64; pIC50 (KPC-2; [19]): 7.09
O=C(NC1CC2(CNC2)C1)[C@H]1CC[C@@H]2CN1C(=O)N2OS(=O)(=O)O [Compound 2-2, (2R,5R)-2-((2-azaspiro[3.3]heptan-6-yl)carbamoyl)-7-oxo-1,6-diazabicyclo[3.2.1]octan-6-yl hydrogen sulfate] |  |  |  |  |  |  |  |  |  |  |  | MIC [3, 14]: 4 mg/L; MIC [4, 15]: 4 mg/L; MIC [5, 16]: 4 mg/L; MIC [6, 17]: 4 mg/L; MIC [8, 18]: 2 mg/L; MIC [9]: 2 mg/L; MIC [10]: 2 mg/L; MIC [11]: 2 mg/L

Reference: patent US10167283B2, “β-lactamase inhibitors and uses thereof” (priority 2015, dated 2019)
